{
  "source": "paper PMC10970558",
  "about": "(International Journal of Molecular Sciences, 2024)",
  "key": {"[1]": {"experiment": "Neutral red (NR) cytotoxicity assay", "assay_type": "cell-based, human", "conditions": "human, HaCaT immortalized keratinocytes, 50 µM, 24 h, NR assay", "protocol": "(§1) After 24 h exposure to drugs, assay was performed as described."}, "BJ normal fibroblasts [2]": {"system": "BJ normal fibroblasts", "experiment": "Neutral red (NR) cytotoxicity assay", "assay_type": "cell-based, human", "conditions": "for IC50: 24 h treatment, AAT Bioquest IC50 calculator", "protocol": "as §1"}, "[3]": {"system": "HaCaT immortalized keratinocytes", "experiment": "Neutral red (NR) cytotoxicity assay", "assay_type": "cell-based, human", "conditions": "for IC50: 24 h treatment, NR assay, AAT Bioquest IC50 calculator", "protocol": "as §1"}, "BJ normal fibroblasts [4]": {"system": "BJ normal fibroblasts", "experiment": "Caspase 3/7 activity (apoptosis)", "assay_type": "cell-based, human", "conditions": "24 h", "protocol": "(§2) As an apoptosis marker, Caspase 3/7 activity was measured with Apo-ONE® Homogenous Caspase-3/7 Assay (Promega). The fluorescence as determinant of caspase-3/7 activity was read at 485/535 nm using Tecan Infinite M200 PRO Multimode Microplate Reader (TECAN Group Ltd., Männedorf, Switzerland) and results were adjusted relatively to the number of cells per well (the number of cells was determined by fluorescence measurement after DAPI staining)."}, "[5]": {"system": "HaCaT immortalized keratinocytes", "experiment": "Caspase 3/7 activity (apoptosis)", "assay_type": "cell-based, human", "conditions": "24 h", "protocol": "as §2"}, "BJ normal fibroblasts [6]": {"system": "BJ normal fibroblasts", "experiment": "Intracellular ATP level (CellTiter-Glo)", "assay_type": "cell-based, human", "conditions": "24 h", "protocol": "(§3) Intracellular level of ATP was estimated with commercially available bioluminescent CellTiter-Glo® Assay kit from Promega, which was prepared according to manufacturer’s protocol and added to cells (100 μL/well). After 10 min incubation at RT the luminescence was measured using the Infinite M200 PRO Multimode Microplate Reader (TECAN Group Ltd., Männedorf, Switzerland) against blank (wells with the CellTiter-Glo® reagent only). The luminescence signal was proportional to ATP level. At the same time a parallel assay was performed, and cells were labeled with […] DAPI (as described above in proliferation assay). Using calibration curve, the DAPI fluorescence signal was used to estimate the number of cells in each well and to calculate luminescence signal intensity from ATP per one cell. The results were expressed as % of the control (non-treated cells)."}, "[7]": {"system": "HaCaT immortalized keratinocytes", "experiment": "Intracellular ATP level (CellTiter-Glo)", "assay_type": "cell-based, human", "conditions": "24 h", "protocol": "as §3"}, "BJ normal fibroblasts [8]": {"system": "BJ normal fibroblasts", "experiment": "Migration (scratch) assay", "assay_type": "cell-based, human", "conditions": "12 h", "protocol": "(§4) Cells were seeded in 24-well plates at 1.5 × 10^5 cells/well in 600 µL culture medium and incubated at 37 °C for 24 h to obtain full confluence. Afterwards, cells were scraped with a sterile 200 µL pipette tips and debris was removed. […] Medium with lowered 2% FBS was used to inhibit cell division. […] Assay was performed as described. The results were expressed as % of scraped area closure estimated as ratio of area measured before and after treatment with drugs."}, "[9]": {"system": "HaCaT immortalized keratinocytes", "experiment": "Migration (scratch) assay", "assay_type": "cell-based, human", "protocol": "as §4"}, "[10]": {"experiment": "In vivo toxicity, C. elegans survival", "conditions": "N2, Caenorhabditis elegans, in vivo, other: exposure in complete S medium in 96-well plate, 7 days incubation, read-out: viability (living individuals)", "protocol": "(§5) Nematodes wild-type culture (strain N2) was maintained at 20 °C on NGM agar plates with bacteria Escherichia coli OP50 as food source. C. elegans culture was synchronized by treatment with hypochlorite. Obtained eggs were left in M9 buffer at room temperature to hatch until the following day. The next day L1 worms were placed on NGM plates with E. coli OP50 and left at 20 °C until reaching L4 stage (approximately 44 h). L4 worms were transferred to 15 mL falcons by washing NGM plates twice with 5 mL water and centrifuged at 1500 rpm for 3–4 min. Then supernatant was aspirated. Pellet was re-suspended with 5 mL of complete S medium followed by centrifugation. Subsequently the density of nematodes suspension was assessed according to Scanlan et al.. Worms were suspended in complete S medium with E. coli OP50 (1:1000), 0.08% cholesterol (5 mg/mL in Et-OH), 1% penicillin-streptomycin, 1% nystatin, and 100 mM FUdR (at final concentration 200 µM) to obtain 20 nematodes in 50 μL. FUdR was added to sterilize nematodes. After that worms were transferred to 96-well plate. The working solutions of tested drugs were prepared in the complete S medium with 0.1% DMSO and placed into a 96-well plate with previously seeded worms. Then, worms were incubated at 21 °C for 7 days. Live (moving and curling) and dead nematodes were counted every day with an inverted microscope with contrast phase (Delta Optical IB-100). Images of treated C. elegans were also collected. The assay was performed in triplicates in three independent experiments.\n(§6) To analyze differences in nematode viability incubated with the respective concentrations of the compounds, the Kaplan–Meier estimator was used. Statistically significant differences between the control and treated groups were determined with Gehan’s Wilcoxon test. Statistically significant differences in body size between the control and treated groups were determined using a Kruskal–Wallis. p < 0.05 was considered statistically significant. All analyses and calculations were performed using Statistica 13.3 software (StatSoft, Cracow, Poland)."}, "C. elegans [11]": {"system": "C. elegans", "experiment": "In vivo toxicity, C. elegans survival", "conditions": "for concentration at which toxic: 7 days incubation, tested 25–400 µM; for effect on the entire nematode organism: up to 100 µM, up to 4th day of incubation", "protocol": "as §5, §6"}, "C. elegans [12]": {"system": "C. elegans", "experiment": "In vivo toxicity, C. elegans body length", "design": "species or system Caenorhabditis elegans", "protocol": "as §5, §6"}, "glioma stem cells GSC": {"system": "glioma stem cells GSC", "design": "method as in PMID 18509487", "conditions": "mouse model of malignant glioma; cited from earlier work"}, "A172 glioma cells": {"system": "A172 glioma cells", "design": "method as in PMID 37574500", "conditions": "A172, 24 h incubation; cited from earlier work"}, "U87 glioma": {"system": "U87 glioma", "design": "method as in PMID 33941107", "conditions": "cited from earlier work"}, "BJ normal fibroblasts [13]": {"system": "BJ normal fibroblasts", "experiment": "Proliferation assay (DAPI, 72 h)", "assay_type": "cell-based, human", "protocol": "Cells were seeded into 96-well, clear microplates at density 4 × 10^3 cells/well and incubated 24 h at 37 °C to attach. […] DMSO concentration was adjusted to 0.1% in all samples. The plates were placed for 72 h in incubator. Then, cells were washed with PBS and fixed in 3.7% formaldehyde solution in PBS for 15 min at RT, again washed with PBS and nuclei were staining with 600 nM DAPI solution in PBS (100 µL/well, 1 h). The fluorescent signal, proportional to the number of cells, was measured in Tecan Infinite M200 PRO Mulitmode Microplate Reader (TECAN Group Ltd., Männedorf, Switzerland) at 360 nm/460 nm. The results were expressed as % of the 0.1% DMSO treated control."}, "PPARγ in BJ cells": {"system": "PPARγ in BJ cells", "experiment": "PPARγ level, Western blot", "assay_type": "cell-based, human", "conditions": "non-toxic concentration (12.5 µM), 24 h"}, "PPARγ": {"target": "PPARγ", "design": "method as in PMID 11684010", "conditions": "cited from earlier work"}},
  "note": "Several values for one entry are separate records, joined by “and”; a condition that tells them apart may be missing. Equal entries are not always repeated. Where two headings read alike, the source gives them in different places.",
  "data": [
    {"smiles": "Cc1ccc(-c2cc(C(F)(F)F)nn2-c2ccc(S(N)(=O)=O)cc2)cc1", "note": "[CXB, celecoxib]", "values": [
      {"measurement": "viability at 24 h, 50 µM", "setting": "[1]", "value": "~65", "unit": "%"},
      {"measurement": "IC50", "setting": "BJ normal fibroblasts [2]; Homo sapiens, Fibroblast", "value": 77.6, "unit": "µM"},
      {"measurement": "IC50", "setting": "[3]; Homo sapiens, read-out: IC50", "value": 59.5, "unit": "µM"},
      {"measurement": "concentration from which caspase 3/7 activity increased / apoptosis induced", "setting": "BJ normal fibroblasts [4]", "value": "≥ 50", "unit": "µM"},
      {"measurement": "concentration from which caspase 3/7 activity increased / apoptosis induced", "setting": "[5]", "value": "≥ 50", "unit": "µM"},
      {"measurement": "concentration at which intracellular ATP level increased", "setting": "BJ normal fibroblasts [6]", "value": 25, "unit": "µM"},
      {"measurement": "concentration at which intracellular ATP level increased", "setting": "[7]", "value": "25 µM and 50 µM"},
      {"measurement": "concentration from which migration was reduced", "setting": "BJ normal fibroblasts [8]", "value": "≥ 50", "unit": "µM"},
      {"measurement": "concentration from which migration was reduced", "setting": "[9]; 24 h", "value": "≥ 50", "unit": "µM"},
      {"measurement": "viability at 7 days, 200 µM", "setting": "[10]; 200 µM", "value": 60, "unit": "%"},
      {"measurement": "viability at 7 days, 400 µM", "setting": "[10]; 400 µM", "value": 73, "unit": "%"},
      {"measurement": "concentration at which lifespan was significantly shortened", "setting": "C. elegans [11]; 7-day treatment", "value": "25 to 400", "unit": "µM"},
      {"measurement": "concentration at which toxic", "setting": "C. elegans [11]", "value": 25, "unit": "µM"},
      {"measurement": "effect on the entire nematode organism", "setting": "C. elegans [11]", "value": "no significant effect"},
      {"measurement": "reduction of body length", "setting": "C. elegans [12]; 200 µM, 7 days", "value": 25, "unit": "%"},
      {"measurement": "concentration at which body length was significantly shortened", "setting": "C. elegans [12]; 7-day treatment", "value": "50 to 400", "unit": "µM"},
      {"measurement": "body length versus control group", "setting": "C. elegans [12]; 50 and 400 µM, 7 days", "value": "more than twice as short"},
      {"measurement": "IC50", "setting": "glioma stem cells GSC", "value": 60, "unit": "µM"},
      {"measurement": "concentration from which cells were significantly destroyed via apoptosis", "setting": "A172 glioma cells", "value": "≥ 25", "unit": "µM"}
    ]},
    {"smiles": "CC1(COc2ccc(CC3SC(=O)NC3=O)cc2)CCCCC1", "note": "(centres unmarked) [Ciglitazone]", "values": [
      {"measurement": "concentration inhibiting growth of U87 glioma tumors, colony formation and migration", "setting": "U87 glioma", "value": 20, "unit": "µM"}
    ]},
    {"smiles": "CC(C)C[C@H](NC(=O)OCC1c2ccccc2-c2ccccc21)C(=O)O", "note": "[FL, Fmoc-L-Leucine]", "values": [
      {"measurement": "viability", "setting": "BJ normal fibroblasts [2]; 100 µM, 24 h", "value": "about 70%"},
      {"measurement": "IC50", "setting": "BJ normal fibroblasts [2]", "value": 400, "unit": "µM"},
      {"measurement": "IC50", "setting": "[3]", "value": "≫"},
      {"measurement": "sensitivity of cells", "setting": "[3]; up to the highest (100 µM) concentration", "value": "not sensitive"},
      {"measurement": "concentration at which cell division was inhibited", "setting": "BJ normal fibroblasts [13]", "value": 100, "unit": "µM"},
      {"measurement": "concentration from which caspase 3/7 activity increased / apoptosis induced", "setting": "BJ normal fibroblasts [4]", "value": "≥ 50", "unit": "µM"},
      {"measurement": "change of caspase 3/7 activity level", "setting": "[5]", "value": "reduced"},
      {"measurement": "concentration at which intracellular ATP level decreased", "setting": "BJ normal fibroblasts [6]", "value": 100, "unit": "µM"},
      {"measurement": "concentration at which intracellular ATP level increased", "setting": "[7]", "value": 100, "unit": "µM"},
      {"measurement": "concentration from which migration was reduced", "setting": "BJ normal fibroblasts [8]", "value": "≥ 50", "unit": "µM"},
      {"measurement": "effect on migration", "setting": "[9]; entire range of concentrations used (25–100 µM)", "value": "did not affect"},
      {"measurement": "increase of PPARγ level", "setting": "PPARγ in BJ cells", "value": "55% and 50%"},
      {"measurement": "concentration at which toxic", "setting": "C. elegans [11]", "value": 400, "unit": "µM"},
      {"measurement": "effect on the entire nematode organism", "setting": "C. elegans [11]", "value": "no significant effect"},
      {"measurement": "change in nematode body length", "setting": "C. elegans [12]; 7 days", "value": "did not significantly affect"},
      {"measurement": "Ki", "setting": "PPARγ", "value": 15, "unit": "µM"}
    ]},
    {"smiles": "COC(=O)Nc1nc2ccc(C(=O)c3ccccc3)cc2[nH]1", "note": "[mebendazole]", "values": [
      {"measurement": "IC50", "setting": "C. elegans [11]; Caenorhabditis elegans, data from our studies", "value": 4, "unit": "µM"}
    ]},
    {"smiles": "Cc1c(C)c2c(c(C)c1O)CCC(C)(COc1ccc(CC3SC(=O)NC3=O)cc1)O2", "note": "(centres unmarked) [troglitazone]", "values": [
      {"measurement": "concentration inhibiting growth of U87 glioma tumors, colony formation and migration", "setting": "U87 glioma", "value": 20, "unit": "µM"}
    ]}
  ]
}
